From publication PMC11818225, “Multifaceted Sulfonamide-Derived Thiosemicarbazones: Combining Metal Chelation and Carbonic Anhydrases Inhibition in Anticancer Therapy” (International Journal of Molecular Sciences, 2025)

What was measured:
[1] = system: A549 (non-small cell lung); test: Antiproliferative SBR assay (NCI protocol), A549; assay type: cell-based, human; details: 48 h exposure, n = 3, mean ± SD
Text: (§1) The latter two represent multidrug-resistant cell lines.

HBL-100 (breast) = test: Antiproliferative SBR assay (NCI protocol), HBL-100; assay type: cell-based, human; details: 48 h exposure, n = 3, mean ± SD
Text: as §1

HeLa (cervix) = test: Antiproliferative SBR assay (NCI protocol), HeLa; assay type: cell-based, human; details: 48 h exposure, n = 3, mean ± SD
Text: as §1

T-47D (breast) = test: Antiproliferative SBR assay (NCI protocol), T-47D; assay type: cell-based, human; details: 48 h exposure, n = 3, mean ± SD, multidrug-resistant line
Text: as §1

WiDr (colon) = test: Antiproliferative SBR assay (NCI protocol), WiDr; assay type: cell-based, human; details: 48 h exposure, n = 3, mean ± SD, multidrug-resistant line
Text: as §1

[2] = system: SW1573 (non-small cell lung)
Method: The potential antiproliferative activity of sulfonamides synthesized in this study was evaluated in vitro using the SBR assay, following the US NCI protocol. A panel of six tumor cell lines was employed: A549 (non-small cell lung), HBL-100 (breast), HeLa (cervix), SW1573 (non-small cell lung), T-47D (breast), and WiDr (colon). The latter two represent multidrug-resistant cell lines.
Cells were maintained in culture in 60 mm cell culture dishes in growth medium (10 mL) and passaged twice weekly.
The antiproliferative activity of compounds was tested using our implementation of the protocol of the National Cancer Institute (NCI) of the USA. The following seeding densities (cells per well) were used: 2500 (A549, HBL-100, HeLa, and SW1573) and 5000 (T-47D and WiDr). Stock solutions of inhibitors (40 mM) were prepared in pure DMSO (400 times the maximum test concentration).

human CA I = human CA I (Homo sapiens, UniProt P00915); test: Stopped-flow CO2 hydrase assay, CA I
Sequence of human CA I (P00915 whole entry): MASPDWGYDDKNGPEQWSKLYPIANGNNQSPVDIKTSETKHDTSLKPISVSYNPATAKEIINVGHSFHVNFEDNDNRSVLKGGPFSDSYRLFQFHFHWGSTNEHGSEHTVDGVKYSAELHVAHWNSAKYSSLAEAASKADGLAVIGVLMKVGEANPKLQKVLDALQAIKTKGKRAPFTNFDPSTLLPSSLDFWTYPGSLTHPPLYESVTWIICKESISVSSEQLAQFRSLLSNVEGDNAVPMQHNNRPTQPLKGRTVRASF

human CA II = human CA II (Homo sapiens, UniProt P00918); test: Stopped-flow CO2 hydrase assay, CA II
human CA IX = human CA IX (Homo sapiens, UniProt Q16790); test: Stopped-flow CO2 hydrase assay, CA IX; details: for Selectivity Ratio I/IX: Ki CA I / Ki CA IX; for Selectivity Ratio II/IX: Ki CA II / Ki CA IX
human CA XII = human CA XII (Homo sapiens, UniProt O43570); test: Stopped-flow CO2 hydrase assay, CA XII; details: for Selectivity Ratio I/XII: Ki CA I / Ki CA XII; for Selectivity Ratio II/XII: Ki CA II / Ki CA XII
Sequence of human CA XII (O43570 25-354): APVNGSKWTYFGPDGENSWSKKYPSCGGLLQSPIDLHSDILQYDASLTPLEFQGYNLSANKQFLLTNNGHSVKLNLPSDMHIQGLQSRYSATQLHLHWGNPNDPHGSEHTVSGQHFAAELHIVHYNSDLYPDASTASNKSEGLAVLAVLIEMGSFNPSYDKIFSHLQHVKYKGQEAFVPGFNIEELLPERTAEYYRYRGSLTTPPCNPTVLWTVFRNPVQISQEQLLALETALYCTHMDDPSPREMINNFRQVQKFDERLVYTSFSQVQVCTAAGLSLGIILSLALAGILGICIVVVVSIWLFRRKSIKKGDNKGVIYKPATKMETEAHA

Row | Compound | GI50 ([1]; Homo sapiens, A549) | GI50 (HBL-100 (breast); Homo sapiens, HBL-100) | GI50 (HeLa (cervix); Homo sapiens, HeLa) | GI50 (T-47D (breast); Homo sapiens, T47D) | GI50 (WiDr (colon); Homo sapiens, WiDr) | GI50 [2] | Ki (human CA I) | Ki (human CA II) | Ki (human CA IX) | Selectivity Ratio I/IX (human CA IX) | Selectivity Ratio II/IX (human CA IX) | Ki (human CA XII) | Selectivity Ratio I/XII (human CA XII) | Selectivity Ratio II/XII (human CA XII) | GI50 [1] | GI50 (HBL-100 (breast)) | GI50 (HeLa (cervix)) | GI50 (T-47D (breast)) | GI50 (WiDr (colon))
1 | NNC(=S)Nc1cccc(S(N)(=O)=O)c1 [Compound 3b, 4-N-(3′-Sulfonamidophenyl)-3-thiosemicarbazide] | > 100 µM | > 100 µM | > 100 µM | > 100 µM | > 100 µM | > 100 µM | 1.46 µM | 0.439 µM | 0.185 µM | 7.9 | 2.4 | 0.116 µM | 12.6 | 3.8 |  |  |  |  | 
2 | NS(=O)(=O)c1ccc(CCNC(=S)N/N=C/c2ccccn2)cc1 [Compound 5c, 1-(Pyridin-2′-ylmethylene)-4-[2″-(4‴-sulfonamidophenyl)]ethyl-3-thiosemicarbazone] | 37 ± 11 µM | > 100 µM | > 100 µM | > 100 µM | > 100 µM | > 100 µM | 0.27 µM | 0.0839 µM | 0.0285 µM | 9.5 | 2.9 | 0.0093 µM | 29.0 | 9.0 |  |  |  |  | 
3 | O=c1[nH]cc(F)c(=O)[nH]1 [5-Fluorouracil, reference compound] | 2.2 ± 0.3 µM | 4.4 ± 0.7 µM | 16 ± 5 µM | 43 ± 16 µM | 49 ± 7 µM | 3.3 ± 1.2 µM |  |  |  |  |  |  |  |  |  |  |  |  | 
4 | COc1ccc(/C=N/NC(=S)Nc2cccc(S(N)(=O)=O)c2)cc1 [Compound 4h, 1-(4′-Methoxyphenylmethylene)-4-(3″-sulfonamidophenyl)-3-thiosemicarbazone] | > 100 µM | > 100 µM | > 100 µM | > 100 µM | > 100 µM | > 100 µM |  |  |  |  |  |  |  |  |  |  |  |  | 
5 | COc1ccc(/C=N/NC(=S)Nc2ccc(S(N)(=O)=O)cc2)cc1 [Compound 4b, 1-(4′-Methoxyphenylmethylene)-4-(4″-sulfonamidophenyl)-3-thiosemicarbazone] | > 100 µM | > 100 µM | 64 ± 23 µM | > 100 µM | > 100 µM | > 100 µM |  |  |  |  |  |  |  |  |  |  |  |  | 
6 | NS(=O)(=O)c1cccc(NC(=S)N/N=C/c2ccc(Cl)cc2)c1 [Compound 4j, 1-(4′-Chlorophenylmethylene)-4-(3″-sulfonamidophenyl)-3-thiosemicarbazone] | 22 ± 4 µM | 42 ± 15 µM | 38 ± 3 µM | 59 ± 16 µM | 24 ± 8 µM | 36 ± 4 µM |  |  |  |  |  |  |  |  |  |  |  |  | 
7 | NS(=O)(=O)c1cccc(NC(=S)N/N=C/c2ccc(F)cc2)c1 [Compound 4i, 1-(4′-Fluorophenylmethylene)-4-(3″-sulfonamidophenyl)-3-thiosemicarbazone] | 83 ± 16 µM | > 100 µM | > 100 µM | > 100 µM | 79 ± 29 µM | > 100 µM |  |  |  |  |  |  |  |  |  |  |  |  | 
8 | NS(=O)(=O)c1ccc(NC(=S)N/N=C/c2ccc(Cl)cc2)cc1 [Compound 4d, 1-(4′-Chlorophenylmethylene)-4-(4″-sulfonamidophenyl)-3-thiosemicarbazone] | > 100 µM | > 100 µM | > 100 µM | > 100 µM | > 100 µM | > 100 µM |  |  |  |  |  |  |  |  |  |  |  |  | 
9 | NNC(=S)NCCc1ccc(S(N)(=O)=O)cc1 [Compound 3c, 4-N-[2′-(4″-Sulfonamido)phenyl]ethyl-3-thiosemicarbazide] | > 100 µM | > 100 µM | > 100 µM | > 100 µM | > 100 µM | > 100 µM | 0.079 µM | 0.00851 µM | 0.013 µM | 6.1 | 0.65 | 0.00502 µM | 15.7 | 1.7 |  |  |  |  | 
10 | NS(=O)(=O)c1ccc(NC(=S)N/N=C/c2ccc(Br)cc2)cc1 [Compound 4e, 1-(4′-Bromophenylmethylene)-4-(4″-sulfonamidophenyl)-3-thiosemicarbazone] | 23 ± 6 µM | 24 ± 2 µM | 18 ± 1 µM | 36 ± 1 µM | 62 ± 12 µM | 22 ± 1 µM |  |  |  |  |  |  |  |  |  |  |  |  | 
11 | NS(=O)(=O)c1ccc(CCNC(=S)N/N=C/c2ccc(F)cc2)cc1 [Compound 4n, 1-(4′-Fluorophenylmethylene)-4-[2″-(4‴-sulfonamido)phenyl]ethyl-3-thiosemicarbazone] | > 100 µM | > 100 µM | > 100 µM | > 100 µM | > 100 µM | > 100 µM | 2.49 µM | 0.59 µM | 0.3 µM | 8.3 | 2.0 | 0.0485 µM | 51.2 | 12.2 |  |  |  |  | 
12 | NS(=O)(=O)c1cccc(NC(=S)N/N=C/c2ccccc2)c1 [Compound 4g, 1-Phenylmethylene-4-(3″-sulfonamidophenyl)-3-thiosemicarbazone] | 51 ± 10 µM | > 100 µM | 61 ± 6 µM | 83 ± 10 µM | 62 ± 10 µM | 70 ± 1 µM |  |  |  |  |  |  |  |  |  |  |  |  | 
13 | NS(=O)(=O)c1cccc(NC(=S)N/N=C/c2ccc(Br)cc2)c1 [Compound 4k, 1-(4′-Bromophenylmethylene)-4-(3″-sulfonamidophenyl)-3-thiosemicarbazone] | 19 ± 6 µM | 40 ± 1 µM | 45 ± 5 µM | > 100 µM | > 100 µM | 46 ± 1 µM |  |  |  |  |  |  |  |  |  |  |  |  | 
14 | NS(=O)(=O)c1ccc(NC(=S)N/N=C/c2ccc(F)cc2)cc1 [Compound 4c, 1-(4′-Fluorophenylmethylene)-4-(4″-sulfonamidophenyl)-3-thiosemicarbazone] | 25 ± 5 µM | 28 ± 1 µM | 7.9 ± 1.1 µM | 17 ± 1 µM | 24 ± 4 µM | 6 ± 0.4 µM |  |  |  |  |  |  |  |  |  |  |  |  | 
15 | NNC(=S)Nc1ccc(S(N)(=O)=O)cc1 [Compound 3a, 4-N-(4′-Sulfonamidophenyl)-3-thiosemicarbazide] | > 100 µM | > 100 µM | > 100 µM | > 100 µM | > 100 µM | > 100 µM |  |  |  |  |  |  |  |  |  |  |  |  | 
16 | [NH2][Pt]([NH2])([Cl])[Cl] [CDDP, cisplatin, reference compound] |  |  |  |  |  | 2.7 ± 0.4 µM |  |  |  |  |  |  |  |  | 4.9 ± 0.2 µM | 1.9 ± 0.2 µM | 1.8 ± 0.5 µM | 17 ± 3 µM | 26 ± 4 µM
17 | NS(=O)(=O)c1ccc(NC(=S)N/N=C/c2ccc([N+](=O)[O-])cc2)cc1 [Compound 4f, 1-(4′-Nitrophenylmethylene)-4-(4″-sulfonamidophenyl)-3-thiosemicarbazone] | > 100 µM | > 100 µM | > 100 µM | > 100 µM | > 100 µM | > 100 µM |  |  |  |  |  |  |  |  |  |  |  |  | 
